Assay results from EP3378852A1, “AMORPHOUS FORM OF APREMILAST, PREPARATION METHOD THEREFOR, AND APPLICATION THEREOF” (Changzhou Ainuoxinrui Pharmaceuticals, Ltd., priority 2015, dated 2017).
Values after ≈ are worked out from the molar mass of the structure shown. Blank lines part the entries; values can stand above or below the compound they belong to.

What was measured:
Type in all cases: physicochemical
[1] = Determination of apparent solubility (shake flask, 37 °C, 12 h, HPLC external standard); conditions: for solubility at 12 h: thermodynamic from solid; for solubility at 12 h / Apparent solubility: 37 °C ± 0.5 °C, 12h
Method: Example 11: Determination of Apparent solubility
The apparent solubility of the amorphous form of Apremilast in the present invention and the Apremilast crystal form is compared.
The test objects were as follows: the amorphous form of Apremilast obtained in Example 1 of the present invention; the crystal Form B of Apremilast was prepared according to the patent CN102702070 Example 12. […]
Preparation of diluents of different pH: • (1) pH=1.0 diluent: Add 9 mL of concentrated HCl to a 1000 mL of volumetric flask, diluted to the volume with water. • (2) pH=2.0 diluent: Solution A: Transfer 16.6 mL of phosphoric acid to a 100 mL volumetric flask, dilute to the volume with water, shake to mix. Solution B: Weigh and transfer 71.63g of […] phosphate to a 1000 mL of volumetric flask, dilute to the volume with water, dissolve and mix well. […]
Example 51: Determination of Apparent solubility
The test objects were as follows: the solid dispersion of amorphous Apremilast obtained in Example 23 of the present invention; the physical mixture comprising Apremilast crystalline (Apremilast crystal Form B, sorbitol and polyacrylic resin Eudragit L100 were mixed physically, and the weight ratio is 1:1:1, and the crystal Form B of Apremilast was prepared according to the patent CN102702070 Example 12.).

[2] = Impact factor test (high temperature / high humidity stress stability; related substances by HPLC, crystallinity by XRPD)
Method: Example 9: Impact factor test of the amorphous Apremilast
Material: Amorphous Apremilast was prepared according to the method of Example 1
(§1) Experiment conditions: temperature 40 °C ± 2 °C, humidity 75% ± 5%
The substance was detected by HPLC.
Example 46: Impact factor test of the solid dispersion of amorphous Apremilast and hydroxypropylcellulose SSL and povidone K30
Material: the solid dispersion of amorphous Apremilast and hydroxypropylcellulose SSL and povidone K30 was prepared according to the method of Example 12
Experiment conditions: temperature 40 °C ± 2 °C, humidity 75% ± 5% The substance was detected by HPLC.
Example 49: Impact factor test of the solid dispersion of amorphous Apremilast, sorbitol and polyacrylic resin Eudragit L100 […]

[3] = Accelerated stability test (related substances by HPLC, crystallinity by XRPD); conditions: for Related substances (Total impurities %) / crystalline (XRPD): Temperature: 40°C±2°C, Humidity: 75%±5%
Method: Example 10: Accelerated stability test of the amorphous Apremilast
Material: amorphous Apremilsat was prepared according to the method of Example 1.
as §1
The substance was detected by HPLC. […]

[4] = Temperature 40 °C ± 2 °C, 0 day
[5] = Temperature 40 °C ± 2 °C, 5 days
[6] = Temperature 40 °C ± 2 °C, 10 days
[7] = Temperature 60 °C ± 2 °C, 0 day
[8] = Temperature 60 °C ± 2 °C, 5 days
[9] = Temperature 60 °C ± 2 °C, 10 days
[10] = conditions of high temperature, high humidity after 10 days
[11] = accelerated test conditions after 6 months

- apparent solubility compared with the crystal form or the physical mixture comprising crystal Form B ([1]; at each pH): significantly higher
- apparent solubility increases ([1]; in most pH conditions): more than 60%
- solubility at 12 h ([1]; pH 3.0 acetate diluent, 37 °C, pH 3, aqueous buffer, pH value of Dilution 3.0): 66.8 µg/mL (≈ 145 µM)
- solubility at 12 h ([1]; pH 4.5 diluent, 37 °C, pH 4.5, aqueous buffer, pH value of Dilution 4.5): 42.2 µg/mL (≈ 91.7 µM)
- solubility at 12 h ([1]; pH 6.8 phosphate diluent, 37 °C, pH 6.8, aqueous buffer, pH value of Dilution 6.8): 23.2 µg/mL (≈ 50.4 µM)
- solubility at 12 h ([1]; pH 7.4 phosphate diluent, 37 °C, pH 7.4, aqueous buffer, pH value of Dilution 7.4): 18.7 µg/mL (≈ 40.6 µM)
- Apparent solubility ([1]; pH value of Dilution 2.0, listed as The amorphous form of Apremilast obtained in Example 1): 19.32 µg/mL
- Apparent solubility ([1]; pH value of Dilution 5.0, listed as The amorphous form of Apremilast obtained in Example 1): 22.81 µg/mL
- solubility at 12 h ([1]; phthalate buffer pH 5.6, 37 °C, pH 5.6, aqueous buffer, pH value of Dilution 5.6): 30 µg/mL (≈ 65.2 µM)
- Related substances (Total impurities %) ([2]; Humidity 75%±5%, 0 day): 0.08%
- Related substances (Total impurities %) ([2]; Humidity 75%±5%, 5 days): 0.08%
- Related substances (Total impurities %) ([2]; Humidity 75%±5%, 10 days): 0.09%
- Related substances (Total impurities %) ([2]; Humidity 90%±5%, 0 day): 0.08%
- Related substances (Total impurities %) ([2]; Humidity 90%±5%, 5 days): 0.09%
- Related substances (Total impurities %) ([2]; Humidity 90%±5%, 10 days): 0.11%
- Related substances (Total impurities %) [2, 4]: 0.08%
- Related substances (Total impurities %) [2, 5]: 0.10%
- Related substances (Total impurities %) [2, 6]: 0.12%
- Related substances (Total impurities %) [2, 7]: 0.08%
- Related substances (Total impurities %) [2, 8]: 0.12%
- Related substances (Total impurities %) [2, 9]: 0.14%
- changes in the related substances [2, 10]: no significant changes
- Related substances (Total impurities %) ([3]; 0 month): 0.08%
- Related substances (Total impurities %) ([3]; 1 month): 0.10%
- Related substances (Total impurities %) ([3]; 2 months): 0.14%
- Related substances (Total impurities %) ([3]; 3 months): 0.16%
- Related substances (Total impurities %) ([3]; 6 months): 0.18%
- changes in the related substances [3, 11]: no significant changes
Compound: CCOc1cc([C@@H](CS(C)(=O)=O)N2C(=O)c3cccc(NC(C)=O)c3C2=O)ccc1OC [amorphous Apremilast, N-[2-[(1S)-1-(3-ethoxy-4-Methoxyphenyl)-2-(Methylsulfonyl)ethyl]-2,3-dihydro-1,3-dioxo-1H-isoindol-4-yl]-Acetamide]
- crystalline (XRPD) ([2]; Humidity 75%±5%, 0 day): There is no peak of crystalline Apremilast
- crystalline (XRPD) ([2]; Humidity 75%±5%, 5 days): There is no peak of crystalline Apremilast
- crystalline (XRPD) ([2]; Humidity 75%±5%, 10 days): There is no peak of crystalline Apremilast
- crystalline (XRPD) ([2]; Humidity 90%±5%, 0 day): There is no peak of crystalline Apremilast
- crystalline (XRPD) ([2]; Humidity 90%±5%, 5 days): There is no peak of crystalline Apremilast
- crystalline (XRPD) ([2]; Humidity 90%±5%, 10 days): There is no peak of crystalline Apremilast
- crystalline (XRPD) [2, 4]: There is no peak of crystalline Apremilast
- crystalline (XRPD) [2, 5]: There is no peak of crystalline Apremilast
- crystalline (XRPD) [2, 6]: There is no peak of crystalline Apremilast
- crystalline (XRPD) [2, 7]: There is no peak of crystalline Apremilast
- crystalline (XRPD) [2, 8]: There is no peak of crystalline Apremilast
- crystalline (XRPD) [2, 9]: There is no peak of crystalline Apremilast
- crystallization of Apremilast [2, 10]: no crystallization of Apremilast was observed
- crystalline (XRPD) ([3]; 0 month): There is no peak of crystalline Apremilast
- crystalline (XRPD) ([3]; 1 month): There is no peak of crystalline Apremilast
- crystalline (XRPD) ([3]; 2 months): There is no peak of crystalline Apremilast
- crystalline (XRPD) ([3]; 3 months): There is no peak of crystalline Apremilast
- crystalline (XRPD) ([3]; 6 months): There is no peak of crystalline Apremilast
- crystallization of Apremilast [3, 11]: no crystallization of Apremilast was observed

- Apparent solubility ([1]; pH value of Dilution 2.0): 7.86 µg/mL
- Apparent solubility ([1]; pH value of Dilution 3.0): 48.12 µg/mL
- Apparent solubility ([1]; pH value of Dilution 4.5): 24.18 µg/mL
- Apparent solubility ([1]; pH value of Dilution 5.0): 9.99 µg/mL
- Apparent solubility ([1]; pH value of Dilution 5.6): 16.71 µg/mL
- Apparent solubility ([1]; pH value of Dilution 6.8): 12.53 µg/mL
- Apparent solubility ([1]; pH value of Dilution 7.4): 10.71 µg/mL
Compound: CCOc1cc([C@@H](CS(C)(=O)=O)N2C(=O)c3cccc(NC(C)=O)c3C2=O)ccc1OC [The crystal Form B of Apremilast, N-[2-[(1S)-1-(3-ethoxy-4-Methoxyphenyl)-2-(Methylsulfonyl)ethyl]-2,3-dihydro-1,3-dioxo-1H-isoindol-4-yl]-Acetamide, reference compound]
